Results as given in patent US20110052612A1, “SPIROPIPERIDINE COMPOUND AND MEDICINAL USE THEREOF” (ONO PHARMACEUTICAL CO., LTD., priority 2005, published 2011).

Target: T1, human CXCR3 (Homo sapiens, UniProt P49682)
T1 construct: expressed in transfected cells
T1 sequence (P49682 1-368): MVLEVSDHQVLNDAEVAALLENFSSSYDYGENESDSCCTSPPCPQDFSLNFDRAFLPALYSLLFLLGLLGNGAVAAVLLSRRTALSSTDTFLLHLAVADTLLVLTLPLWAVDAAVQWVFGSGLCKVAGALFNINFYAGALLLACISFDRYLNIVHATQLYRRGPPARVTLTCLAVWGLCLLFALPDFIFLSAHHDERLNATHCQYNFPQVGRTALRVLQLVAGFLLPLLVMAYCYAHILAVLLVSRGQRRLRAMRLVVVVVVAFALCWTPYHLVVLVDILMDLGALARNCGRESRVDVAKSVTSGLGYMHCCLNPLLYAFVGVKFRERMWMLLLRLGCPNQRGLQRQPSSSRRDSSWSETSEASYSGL
Assay: Inhibition of IP-10-induced transient Ca2+ rise in CXCR3/CHO cells
Assay type: cell-based
Settings: human IP-10 30 nM
Description: An Inhibitory Experiment Against the Binding of IP-10 and CXCR3 (the Activity of that Ca Ion (Ca^2+) is Raised in Transient and Induced by IP-10)
The CHO cell (CXCR3/CHO cell) which overexpresses human CXCR3 in stable was suspended with Ham's F-12 culture medium and FBS (10%), was rolled up in 96well plate to become 3.0×10^4 cell/well. After the plate was incubated for one day at 37° C., removed the cultural supernatant, added Ham's F-12 culture media (Fura-2AM (5 μM), Probenecid (2.5 mM) and HEPES (20 mM; pH7.4) were included) to 80 μl/well, incubated for one hour at 37° C. in light exclusion state. […] The transient rise of the intracellular Ca^2+ concentration induced by human IP-10 was measured by means of Ca^2+ detector for 96well (made in Hamamatsu Photonics), and the inhibitory rate (%) of the test compound was calculated by the following calculation formula.
Ec: The measured value of the Ca^2+ transient rise induced by IP-10 Ea: The measured value of the Ca^2+ transient rise induced by IP-10 when a test compound was added

| SMILES | IC50 [nM] |
| --- | --- |
| C#CCOc1ccc(CN2CCC3(CCCCC3)CC2)cc1 [Example 5, 3-[4-(prop-2-yn-1-yloxy)benzyl]-3-azaspiro[5.5]undecane] | 3200 |
| CCCN1C(=O)N(CCc2ccccc2)C=CC12CCN(Cc1ccc(Cl)cc1)CC2 [Example 9, 9-(4-chlorobenzyl)-3-(2-phenylethyl)-1-propyl-1,3,9-triazaspiro[5.5]undec-4-en-2-one] | 3400 |
| CCCCN1CCC2(CCN(Cc3ccc(Cl)cc3)CC2)N(C2CCCC2)C1=O [Example 11, 3-butyl-9-(4-chlorobenzyl)-1-cyclopentyl-1,3,9-triazaspiro[5.5]undecan-2-one] | 2100 |
| O=C1C(Cc2ccccc2)CCC2(CCN(Cc3ccc(Cl)cc3)CC2)N1CC1CC1 (stereo not shown) [Example 15, 3-benzyl-9-(4-chlorobenzyl)-1-(cyclopropylmethyl)-1,9-diazaspiro[5.5]undecan-2-one] | 1100 |
